Blank lines part the entries; values can stand above or below the compound they belong to.
What was measured:
MCF-7 = test: MTT cell viability assay; assay type: cell-based, human
Experimental: (§1) The cell lines used were purchased from American Type Culture Collection (ATCC, Manassas, VA, USA). Human breast cancer cells MCF-7 and MDA-MB-231, human mammary epithelial cell line MCF-10A, and mouse BALB/3T3 embryonic fibroblasts were cultured as already described by some of us. The murine macrophage cell line RAW 264.7 was maintained in Dulbecco’s Modified Eagle’s Medium (DMEM) high glucose (4.5 g/L) supplemented with 10% Fetal Bovine Serum (FBS), 1% L-glutamine, and 100 units/mL of penicillin/streptomycin. The cell cultures were maintained at the temperature of 37 °C in a humidified atmosphere containing 5% CO2.
(§2) The 3-(4,5-dimethylthiazol-2-yl)-2,5-diphenyl-2H-tetrazolium bromide (MTT) assay (Sigma Aldrich (St. Louis, MO, USA)) was carried out to study the in vitro anticancer activities of the complexes, following the previously reported protocol. The cells were incubated for 72 h with different concentrations of the tested compounds (0.1, 1, 10, 25, 50, 100, and 500 µM) and the IC50 values were calculated from the percent (%) of control using the software GraphPad Prism 9 (GraphPad Software, La Jolla, CA, USA).

MDA-MB-231 = test: MTT cell viability assay; assay type: cell-based, human
Experimental: as §1, §2

[1] = system: human mammary epithelial cell line MCF-10A; test: MTT assay, toxicity towards normal cells; assay type: cell-based; conditions: 72 h
Experimental: as §1, §2

[2] = system: NO production in LPS-stimulated RAW 264.7 macrophages; test: Griess assay, NO production; assay type: cell-based, murine; conditions: 25 µM, LPS 1 µg/mL, 24 h
Experimental: The Griess assay was performed using RAW 264.7 murine macrophages to study the anti-inflammatory activity in terms of NO production. RAW 264.7 cells were plated in the 48 multi-wells and, after 24 h, treated with the tested molecules (25 µM) and the lipopolysaccharide (LPS, Sigma Aldrich, Milan, Italy) at a final concentration of 1 µg/mL. LPS is able to induce inflammation by stimulating NO production in immune system cells such as macrophages. After 24 h, the cell medium Griess reagent (Sigma Aldrich, Milan, Italy) was mixed in with a ratio of 1:1. The Griess reagent allowed for the quantification of NO released by macrophages in the treatment medium. The mixture was left for 30 min under agitation and, subsequently, the absorbance at 540 nm was measured using a multiplate reader. The obtained absorbance allowed us to calculate the NO production % compared to the absorbance obtained for the positive control, in which the cells were treated with LPS.

[3] = ABTS radical scavenging assay; assay type: biochemical
Experimental: The radical scavenging properties of the complexes on a 2,20-azino-bis(3-ethylbenzothiazoline-6-sulfonate) radical cation (ABTS^+) were evaluated as previously described.
All the complexes were used at different concentrations (5, 10, 25, 50, and 100 µg/mL) and the ABTS radical scavenging activity, measured at 730 nm using a microplate reader, was expressed as inhibition percentages (%IABTS) compared tothe control, according to the following expression:(3) IABTS (%)=ABSCTRL−ABSsample/ABSCTRL∗100 where ABSCTRL and ABSsample are the absorbance at 730 nm in the control and in the presence of samples, respectively.
IC50 values were calculated from the %IABTS using GraphPad Prism 9 software (GraphPad Inc., San Diego, CA, USA). Trolox was employed as a positive control, while caffeine and theophylline were reference compounds.

[4] = DPPH radical scavenging assay; assay type: biochemical
Experimental: The radical scavenging properties of the complexes on the 1,1-diphenyl-2-picrylhydrazil (DPPH) radical were evaluated as previously described.
All the complexes were used at different concentrations (10, 25, 50, 100, and 200 µg/mL) and the DPPH radical scavenging activity, measured at 517 nm using a microplate reader, was expressed as inhibition percentages (%IDPPH) compared to the initial concentration of DPPH (control) according to the following expression:(2) IDPPH (%)=ABSCTRL−ABSsample/ABSCTRL∗100 where ABSCTRL and ABSsample are the absorbance at 517 nm in the control and in the presence of samples, respectively.
The obtained IDPPH percentages allowed us to calculate the IC50 values using Graph-Pad Prism 9 software (GraphPad Inc., San Diego, CA, USA). Trolox was employed as a positive control, while caffeine and theophylline were reference compounds.

[5] = system: Escherichia coli (ATCC 25922); test: MIC/MBC broth dilution; assay type: cell-based
Experimental: (§3) The bacterial strains used for MIC and MBC value determinations expressed as µg/mL by the broth dilution method, according to CLSI guidelines, were the following:
(§4) -4 Gram-negative: Escherichia coli (ATCC® 25922^TM) and Klebsiella pneumoniae (ATCC® 13883^TM);
(§5) Increasing concentrations of the complexes (50, 70, 100, 150, and 200 µg/mL) were incubated with bacteria plated in 96-well microplates at 37 °C overnight as already reported, and then bacterial growth was checked at a wavelength of 600 nm using a Multiskan spectrophotometer (model Multiskan Ex Microplate; Thermo Scientific, Nyon, Switzerland). MIC or MBC values were obtained by comparing cell density with a positive control (bacterial cells grown in LB medium were added with only the vehicle, DMSO). The results were representative of three independent experiments performed in triplicate. Ampicillin, Gentamicin, and Cephalosporin (Sigma Aldrich A9393) were used as the control for strain sensitivity.

[6] = system: Klebsiella pneumoniae (ATCC 13883); test: MIC/MBC broth dilution; assay type: cell-based
Experimental: as §3, §4, §5

[7] = system: Enterococcus faecalis (ATCC 19433); test: MIC/MBC broth dilution; assay type: cell-based
Experimental: as §3
(§6) -3 Gram-positive: Enterococcus faecalis (ATCC® 19433^TM), Staphylococcus aureus (ATCC® 23235^TM), and Staphylococcus epidermidis (ATCC® 14990™).
as §5

[8] = system: Staphylococcus aureus (ATCC 23235); test: MIC/MBC broth dilution; assay type: cell-based
Experimental: as §3, §6, §5

[9] = system: Staphylococcus epidermidis (ATCC 14990); test: MIC/MBC broth dilution; assay type: cell-based
Experimental: as §3, §6, §5

[10] = system: Pseudomonas aeruginosa (ATCC 15442); test: MIC/MBC broth dilution; assay type: cell-based
Experimental: as §3
as §5, with “The results were representative of three independent experiments performed in triplicate.” left out

[11] = system: Salmonella typhimurium (ATCC 14028); test: MIC/MBC broth dilution; assay type: cell-based
Experimental: as §3
as §5, with “The results were representative of three independent experiments performed in triplicate.” left out

[12] = target: T1, human topoisomerase I (hTopoI) (Homo sapiens, UniProt P11387); test: Human topoisomerase I relaxation assay; assay type: biochemical; conditions: 50 µM, supercoiled pHOT1 DNA
T1 construct: purchased TopoGEN, Port Orange, FL, USA
T1 sequence (P11387 1-765): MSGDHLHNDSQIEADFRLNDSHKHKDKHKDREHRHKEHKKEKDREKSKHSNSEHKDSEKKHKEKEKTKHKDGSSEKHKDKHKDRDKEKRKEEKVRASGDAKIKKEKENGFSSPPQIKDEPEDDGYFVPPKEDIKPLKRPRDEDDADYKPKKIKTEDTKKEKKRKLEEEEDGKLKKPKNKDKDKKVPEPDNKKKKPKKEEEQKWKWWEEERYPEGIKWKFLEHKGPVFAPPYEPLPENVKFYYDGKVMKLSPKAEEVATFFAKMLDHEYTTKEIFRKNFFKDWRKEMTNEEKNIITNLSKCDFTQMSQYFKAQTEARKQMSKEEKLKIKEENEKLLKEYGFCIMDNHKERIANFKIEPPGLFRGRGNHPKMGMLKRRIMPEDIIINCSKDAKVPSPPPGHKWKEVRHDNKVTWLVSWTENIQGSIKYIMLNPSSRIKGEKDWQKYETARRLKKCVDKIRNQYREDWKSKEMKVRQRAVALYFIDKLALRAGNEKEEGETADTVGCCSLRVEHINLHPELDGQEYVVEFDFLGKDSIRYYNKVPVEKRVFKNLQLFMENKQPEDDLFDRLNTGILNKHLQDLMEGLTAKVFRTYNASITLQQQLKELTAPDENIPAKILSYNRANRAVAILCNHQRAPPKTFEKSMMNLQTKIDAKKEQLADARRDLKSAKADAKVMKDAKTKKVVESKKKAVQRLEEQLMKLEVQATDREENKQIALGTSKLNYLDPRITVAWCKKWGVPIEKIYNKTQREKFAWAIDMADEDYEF
Experimental: The human topoisomerase I relaxation assay was performed as reported in [86]. Shortly, the recombinant human topo I (TopoGEN, Port Orange, FL, USA) was incubated with the super-coiled pHOT1, in the presence or not of the tested compounds, at the indicated concentrations. The reaction products were then allowed to separate through the agarose gel electrophoresis, and ethidium bromide-stained DNA was visualized under UV light.

Compound: N.N.[Cl][Pt][Cl] [Cisplatin, reference compound]
IC50 (MCF-7; 72 h): 26.2 ± 1.1 µM
IC50 (MDA-MB-231; 72 h): 32.2 ± 1 µM
IC50 [1]: 78.2 ± 1.2 µM
Inhibition of hTopo I supercoil relaxing activity [12]: inhibited the hTopoI activity

Compound: Cn1c(=O)c2c(n(C)c1=O)[n+](C)cn2CC(O)c1ccccc1 (stereo not shown) [P-L1, 9-[(2-Hydroxy-2-phenyl)ethyl]-1,3,7-trimethylxanthinium Iodide]
IC50 (MCF-7; Homo sapiens, MCF7, 72 h): > 100 µM
IC50 (MDA-MB-231; Homo sapiens, MDA-MB-231, 72 h): > 100 µM
IC50 ([1]; Homo sapiens, MCF-10A): > 100 µM

Compound: Cn1c(=O)c2c(n(C)c1=O)[n+](C)cn2C1CCCCC1O (stereo not shown) [P-L2, 9-[Cyclohexan-2-ol]-1,3,7-trimethylxantinium Iodide]
IC50 (MCF-7; Homo sapiens, MCF7, 72 h): > 100 µM
IC50 (MDA-MB-231; Homo sapiens, MDA-MB-231, 72 h): > 100 µM
IC50 ([1]; Homo sapiens, MCF-10A): > 100 µM

Compound: Cn1c(=O)c2[nH]cnc2n(C)c1=O [Theophylline, reference compound]
IC50 (MCF-7; Homo sapiens, MCF7, 72 h): > 500 µM
IC50 (MDA-MB-231; Homo sapiens, MDA-MB-231, 72 h): > 500 µM
IC50 ([1]; Homo sapiens, MCF-10A): > 500 µM
IC50 [3]: > 500 µM
IC50 ABTS scavenging [3]: did not show any scavenging capacity
IC50 [4]: > 500 µM
IC50 DPPH scavenging [4]: did not show any scavenging capacity
M.I.C. E. coli [5]: >200 µg/mL
MIC ([5]; Escherichia coli, ATCC25922): > 200 µg/mL
M.I.C. K. pneumoniae [6]: >200 µg/mL
MIC ([6]; Klebsiella pneumoniae, ATCC13883, read-out: M.I.C. K. pneumoniae): > 200 µg/mL
M.I.C. E. faecalis [7]: >200 µg/mL
MIC ([7]; Enterococcus faecalis, ATCC19433, read-out: M.I.C. E. faecalis): > 200 µg/mL
M.I.C. S. aureus [8]: >200 µg/mL
MIC ([8]; Staphylococcus aureus, ATCC23235, read-out: M.I.C. S. aureus): > 200 µg/mL
M.I.C. S. epidermidis [9]: >200 µg/mL
MIC ([9]; Staphylococcus epidermidis, ATCC14990, read-out: M.I.C. S. epidermidis): > 200 µg/mL

Compound: Cc1c(C)c2c(c(C)c1O)CCC(C)(C(=O)O)O2 (stereo not shown) [Trolox, reference compound]
IC50 [3]: 54.5 ± 0.9 µM
IC50 [4]: 47 ± 1.2 µM

Now from value to compound, other results behind:

IC50 (MCF-7; 72 h): > 100 µM
IC50 (MDA-MB-231; 72 h): > 100 µM
IC50 [3]: 155.5 ± 1 µM
IC50 [4]: > 500 µM
Compound: Cn1c(=O)c2c(n(C)[c]([Au-][I])[n+]2C2CCCCC2O)n(C)c1=O (stereo not shown) [AuL2, 1,3,7-Trimethylxanthin-9-[cyclohexan-2-ol-8-ylidene]Au(I) Iodide]
IC50 [1]: > 100 µM
Reduction in NO production [2]: ~12.64%
M.B.C. E. coli [5]: > 200 µg/mL
M.I.C. E. coli [5]: 150 µg/mL
M.B.C. K. pneumoniae [6]: > 200 µg/mL
M.I.C. K. pneumoniae [6]: 150 µg/mL
M.B.C. E. faecalis [7]: > 200 µg/mL
M.I.C. E. faecalis [7]: 150 µg/mL
M.B.C. S. aureus [8]: > 200 µg/mL
M.I.C. S. aureus [8]: 150 µg/mL
M.B.C. S. epidermidis [9]: > 125 µg/mL
M.I.C. S. epidermidis [9]: 100 µg/mL
M.B.C. P. aeruginosa [10]: > 125 µg/mL
M.I.C. P. aeruginosa [10]: 100 µg/mL
M.B.C. S. typhimurium [11]: > 200 µg/mL
M.I.C. S. typhimurium [11]: 150 µg/mL

IC50 (MCF-7; Homo sapiens, MCF7, 72 h): > 100 µM
IC50 (MDA-MB-231; Homo sapiens, MDA-MB-231, 72 h): > 100 µM
Compound: Cn1c(=O)c2c(n(C)c1=O)[n+](C)cn2CCO [P-L3]
IC50 ([1]; Homo sapiens, MCF-10A): > 100 µM
